The text below walks through data of US20250171423A1, “PHARMACEUTICAL COMPOUNDS FOR THE TREATMENT OF COMPLEMENT MEDIATED DISORDERS” (Achillion Pharmaceuticals, Inc., priority 2020, published 2025).

pIC50: −log10 of the molar value.

In the first assay the target is T1, Human complement C1s enzyme (Homo sapiens, UniProt P09871).
T1 construct: purified from human serum, Complement Technology, Inc; purchased Complement Technology, Inc; host or cells: human serum
T1 sequence (P09871 438-688 limits assumed): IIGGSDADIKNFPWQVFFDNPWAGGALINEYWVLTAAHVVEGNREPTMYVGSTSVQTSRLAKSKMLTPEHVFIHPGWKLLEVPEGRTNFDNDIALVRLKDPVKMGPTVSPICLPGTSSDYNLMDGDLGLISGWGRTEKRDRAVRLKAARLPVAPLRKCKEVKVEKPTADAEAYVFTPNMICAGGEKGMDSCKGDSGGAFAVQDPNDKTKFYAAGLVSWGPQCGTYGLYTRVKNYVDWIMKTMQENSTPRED
T1 sequence (P09871 16-437 partner limits assumed): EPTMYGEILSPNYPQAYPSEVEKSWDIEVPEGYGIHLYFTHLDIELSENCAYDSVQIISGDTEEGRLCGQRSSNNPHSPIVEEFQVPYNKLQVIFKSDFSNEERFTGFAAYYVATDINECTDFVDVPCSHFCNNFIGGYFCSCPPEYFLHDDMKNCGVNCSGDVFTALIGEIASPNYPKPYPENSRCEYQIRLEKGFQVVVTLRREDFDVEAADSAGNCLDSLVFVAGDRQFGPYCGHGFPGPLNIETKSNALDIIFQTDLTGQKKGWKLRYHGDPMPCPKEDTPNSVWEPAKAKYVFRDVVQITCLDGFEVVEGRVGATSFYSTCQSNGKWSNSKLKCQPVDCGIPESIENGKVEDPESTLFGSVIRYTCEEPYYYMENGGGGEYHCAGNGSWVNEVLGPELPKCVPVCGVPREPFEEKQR
The assay can be described thus: Human C1s Enzyme Assay. The format is biochemical. The following applies: human C1s 1.16 nM, 5 min preincubation, substrate Z-L-Lys-SBzl 100 μM, A405; read-out: C1s Protease Activity. The method in brief:
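C1s purified from human serum (1.16 nM final) was preincubated with compound for 5 min at room temperature in 50 mM Tris, 1 M NaCl, pH 7.5. Z-L-Lys-SBzl and DTNB were then added at 100 μM each, and A405 was followed for 30 min. IC50 came from nonlinear regression of reaction rates.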
`C[C@@H](NC(=O)[C@@H]1CC2(CN1C(=O)CNC(=O)c1ccc(C(=O)c3ccccc3)cc1)OCCO2)c1cc(C(=N)N)cs1` [Compound 219, (S)-7-((4-benzoylbenzoyl)glycyl)-N-((R)-1-(4-carbamimidoylthiophen-2-yl)ethyl)-1,4-dioxa-7-azaspiro[4.4]nonane-8-carboxamide]: the pIC50 was more than 7.00.

Turning to `C[C@@H](NC(=O)[C@@H]1C[C@](F)(CF)CN1C(=O)CNC(=O)CCCOc1ccc(F)cc1)c1cc(C(=N)N)cs1` [Compound 99, (2S,4R)-N-[(1R)-1-(4-carbamimidoylthiophen-2-yl)ethyl]-4-fluoro-4-(fluoromethyl)-1-{2-[4-(4-fluorophenoxy)butanamido]acetyl}pyrrolidine-2-carboxamide], the pIC50 was more than 7.00.

In the case of `C[C@@]12C[C@@H]1N(C(=O)CNC(=O)c1ccc(Oc3ccccc3)cc1)[C@H](C(=O)NCc1nc(C(=N)N)cs1)C2` [Compound 2, (1S,3S,5S)-N-((4-carbamimidoylthiazol-2-yl)methyl)-5-methyl-2-((4-phenoxy-benzoyl)glycyl)-2-azabicyclo[3.1.0]hexane-3-carboxamide], the pIC50 was more than 7.00.

Take `N=C(N)c1csc([C@@H](CO)NC(=O)[C@@H]2C[C@@H](OC(F)F)CN2C(=O)CNC(=O)c2ccc(Oc3ccccc3)cc2)c1` [Compound 197, (2S,4R)-N-((R)-1-(4-carbamimidoylthiophen-2-yl)-2-hydroxyethyl)-4-(difluoromethoxy)-1-((4-phenoxybenzoyl)glycyl)pyrrolidine-2-carboxamide]: the pIC50 is more than 7.00.

As for `CO[C@@H]1C[C@@H](C(=O)N[C@H](C)c2cc(C(=N)N)cs2)N(C(=O)CNC(=O)CCCOc2ccccc2)C1` [Compound 106, (2S,4R)-N-((R)-1-(4-carbamimidoylthiophen-2-yl)ethyl)-4-methoxy-1-((4-phenoxy-butanoyl)glycyl)pyrrolidine-2-carboxamide], the pIC50 is more than 7.00.

On to `N=C(N)c1csc(CNC(=O)[C@@H]2C[C@H](OC(F)(F)F)CN2C(=O)CNC(=O)c2ccc(Oc3ccccc3)cc2)c1` [Compound 244, (2S,4S)-N-((4-carbamimidoylthiophen-2-yl)methyl)-1-((4-phenoxybenzoyl)glycyl)-4-(trifluoromethoxy)pyrrolidine-2-carboxamide], for which the pIC50 is more than 7.00.

As for `CC(=O)NCCOC[C@@]12C[C@@H]1N(C(=O)CNC(=O)c1ccc(Oc3ccccc3)cc1)[C@H](C(=O)N[C@H](C)c1cc(C(=N)N)cs1)C2` [Compound 141, (1S,3S,5R)-5-((2-acetamidoethoxy)methyl)-N-((R)-1-(4-carbamimidoylthiophen-2-yl)ethyl)-2-((4-phenoxybenzoyl)glycyl)-2-azabicyclo[3.1.0]hexane-3-carboxamide], the pIC50 was more than 7.00.

Turning to `C[C@@]12C[C@@H]1N(C(=O)CNC(=O)c1cccc(Oc3ccccc3)c1)[C@H](C(=O)NCc1cc(C(=N)N)cs1)C2` [Compound 137, (1S,3S,5S)-N-((4-carbamimidoylthiophen-2-yl)methyl)-5-methyl-2-((3-phenoxbenzoyl)glycyl)-2-azabicyclo[3.1.0]hexane-3-carboxamide], the pIC50 was more than 7.00.

With `N=C(N)c1csc(NC(=O)C[C@@H]2CCCN2C(=O)CNC(=O)c2ccc(Oc3ccccc3)cc2)c1` [Compound 40, N-{2-[(2S)-2-{[(4-carbamimidoylthiophen-2-yl)carbamoyl]methyl}pyrrolidin-1-yl]-2-oxoethyl}-4-phenoxybenzamide], the pIC50 is less than 6.00.

Take `Cc1sc(CNC(=O)[C@@H]2C[C@]3(C)C[C@@H]3N2C(=O)CNC(=O)c2ccc(Oc3ccccc3)cc2)cc1C(=N)N` [Compound 204, (1S,3S,5S)-N-((4-carbamimidoyl-5-methylthiophen-2-yl)methyl)-5-methyl-2-((4-phenoxybenzoyl)glycyl)-2-azabicyclo[3.1.0]hexane-3-carboxamide]: the pIC50 was less than 6.00.

As to `COC(=N)c1csc(CNC(=O)[C@@H]2C[C@]3(C)C[C@@H]3N2C(=O)CNC(=O)c2ccc(Oc3ccccc3)cc2)c1` [Compound 32, methyl 5-(((1S,3S,5S)-5-methyl-2-((4-phenoxybenzoyl)glycyl)-2-azabicyclo[3.1.0]-hexane-3-carboxamido)methyl)thiophene-3-carbimidate], the pIC50 was 6.00 to 7.00.

Turning to `Cc1ccccc1[C@H]1C[C@@H](C(=O)N[C@H](C)c2cc(C(=N)N)cs2)N(C(=O)CNC(=O)c2ccc(Oc3ccccc3)cc2)C1` [Compound 238, (2S,4R)-N-((R)-1-(4-carbamimidoylthiophen-2-yl)ethyl)-1-((4-phenoxybenzoyl)glycyl)-4-(o-tolyl)pyrrolidine-2-carboxamide], the pIC50 was more than 7.00.

Consider `C[C@@H](NC(=O)[C@@H]1C[C@]2(COCCCCCC(=O)O)C[C@@H]2N1C(=O)CNC(=O)CCCOc1ccccc1)c1cc(C(=N)N)cs1` [Compound 169, 6-(((1S,3S,5R)-3-(((R)-1-(4-carbamimidoylthiophen-2-yl)ethyl)carbamoyl)-2-((4-phenoxybutanoyl)glycyl)-2-azabicyclo[3.1.0]hexan-5-yl)methoxy)hexanoic acid], for which the pIC50 was more than 7.00.

In the case of `CCCC(COc1ccccc1)CC(=O)NCC(=O)N1CC2(C[C@H]1C(=O)NCc1cc(C(=N)N)cs1)OCCO2` (stereo partly drawn) [Compound 90, (8S)-N-((4-carbamimidoylthiophen-2-yl)methyl)-7-((3-(phenoxymethyl)hexanoyl)glycyl)-1,4-dioxa-7-azaspiro[4.4]nonane-8-carboxamide], the pIC50 is more than 7.00.

In the case of `N=C(N)c1csc([C@H](NC(=O)[C@@H]2CC3(CN2C(=O)CNC(=O)CCCOc2ccccc2)OCCO3)c2ccccc2)c1` [Compound 175, (S)-N-((R)-(4-carbamimidoylthiophen-2-yl)(phenyl)methyl)-7-((4-phenoxybutanoyl)glycyl)-1,4-dioxa-7-azaspiro[4.4]nonane-8-carboxamide], the pIC50 is less than 6.00.

Regarding `COC[C@@]1(F)C[C@@H](C(=O)N[C@H](C)c2cc(C(=N)N)cs2)N(C(=O)CNC(=O)CCCOc2ccccc2)C1` [Compound 149, (2S,4R)-N-((R)-1-(4-carbamimidoylthiophen-2-yl)ethyl)-4-fluoro-4-(methoxymethyl)-1-((4-phenoxybutanoyl)glycyl)pyrrolidine-2-carboxamide], the pIC50 is more than 7.00.

With `Cc1cccc([C@H]2C[C@@H](C(=O)NCc3cc(C(=N)N)cs3)N(C(=O)CNC(=O)CCCOc3ccccc3)C2)c1` [Compound 170, (2S,4R)-N-((4-carbamimidoylthiophen-2-yl)methyl)-1-((4-phenoxybutanoyl)glycyl)-4-(m-tolyl)pyrrolidine-2-carboxamide], the pIC50 is more than 7.00.

As for `C[C@@H](C(=O)NCc1cc(C(=N)N)cs1)N(C)C(=O)CNC(=O)c1ccc(Oc2ccccc2)cc1` [Compound 126, (S)-N-(2-((1-(((4-carbamimidoylthiophen-2-yl)methyl)amino)-1-oxopropan-2-yl)(methyl)amino)-2-oxoethyl)-4-phenoxybenzamide], the pIC50 is more than 7.00.

Staying with this assay, now noted: read-out: C1s Protease Activity; human C1s 1.16 nM, 5 min preincubation, substrate Z-L-Lys-SBzl 100 μM, A405.
Turning to `N=C(N)c1csc(CNC(=O)C23CCC(CC2)N3C(=O)CNC(=O)CCCOc2ccccc2)c1` [Compound 30, N-((4-carbamimidoylthiophen-2-yl)methyl)-7-((4-phenoxybutanoyl)glycyl)-7-azabicyclo[2.2.1]heptane-1-carboxamide], the pIC50 is more than 7.00.
